According to patent US20160354320A1, “DRUG LOADED POLYMERIC NANOPARTICLES AND METHODS OF MAKING AND USING SAME” (BIND Therapeutics, Inc., priority 2011, published 2016):

Experiment: Water solubility of cabazitaxel
Format: physicochemical
Excerpt: Drug solubilizer (Tween 80) may be added after the fine emulsion has been quenched. Tween 80 is able to effectively solubilize CTXL crystals and allow for the isolation of nanoparticles from unencapsulated CTXL by preventing the formation of CTXL crystals, and/or by effectively solubilizing any CTXL crystals that form when the fine emulsion is quenched. A standard set of nanoemulsion conditions are as follows: […]

With cabazitaxel [CTXL] the water solubility was “very low water solubility”.
